Among the test systems are T-47D breast; A498 renal; 786-0 renal; NCI-H522 lung; SK-OV-3 ovarian; PC-3 prostate; NCI-H226 lung; HT29 colon; SK-MEL-5 melanoma; SW-620 colon.
What all share (assay): NCI-60 cell line screen, 48 h

The source of these data is PubChem BioAssay (NCI).

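48-hour exposure; five concentrations; linearly interpolated endpoints. TGI: concentration producing complete growth inhibition.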 Bounds are passed on as bounds.

As for `CN1N=C(c2ccncc2)OC1c1ccccc1F` (stereo unspecified), the TGI in the assay on T-47D breast, in the assay with A498 renal, with 786-0 renal, in the assay with NCI-H522 lung, with SK-OV-3 ovarian and in the assay on PC-3 prostate was over 100 µM each time. Moreover, the TGI in the assay with NCI-H226 lung, in the assay on HT29 colon, with SK-MEL-5 melanoma and with SW-620 colon was over 100 µM each time.

With `C[C@H]1[C@H](C)CC[C@]2(C(=O)OC3OC(CO)C(O)C(O)C3O)CC[C@]3(C)C(=CC[C@@H]4[C@@]5(C)C[C@H]6OC(=O)c7cc(O)c(O)c(O)c7-c7c(cc(O)c(O)c7O)C(=O)O[C@@H]6C(CO)(CO)[C@@H]5CC[C@]43C)[C@H]12` (stereo partly specified), the TGI with T-47D breast is over 100 µM; in the assay with A498 renal, over 100 µM; in the assay with 786-0 renal, over 52.2 µM; in the assay on NCI-H522 lung it was 38.6 µM; with SK-OV-3 ovarian, over 100 µM; with PC-3 prostate it was over 100 µM. The TGI was over 100 µM with NCI-H226 lung, over 56 µM with HT29 colon, over 100 µM in the assay with SK-MEL-5 melanoma and over 100 µM with SW-620 colon.

Consider `O=c1c2ccccc2sc2ccccc12`, for which the TGI in the assay on T-47D breast, with A498 renal, in the assay on 786-0 renal, with NCI-H522 lung, in the assay with SK-OV-3 ovarian and in the assay on PC-3 prostate was over 100 µM each time. In addition, the TGI with NCI-H226 lung, in the assay on HT29 colon, with SK-MEL-5 melanoma and with SW-620 colon was over 100 µM in each case.

Consider `CCN(CC)CCO/N=C1\CC[C@H]2[C@@H]3CCc4cc(OC)ccc4[C@H]3CC[C@]12C`, for which the TGI is 7.13 µM in the assay on T-47D breast; 9.28 µM with A498 renal; 3.27 µM with 786-0 renal; 7.02 µM in the assay with NCI-H522 lung; 9.29 µM with PC-3 prostate; 4.69 µM in the assay with NCI-H226 lung. Moreover, the TGI in the assay on HT29 colon was determined as 2.07 µM; in the assay with SK-MEL-5 melanoma, 3.21 µM; in the assay with SW-620 colon, 3.47 µM.

As to `O=S1(=O)c2cnccc2NC(=NCc2ccccc2)N1c1ccccc1`, the TGI in the assay with T-47D breast, in the assay on A498 renal, in the assay with 786-0 renal, in the assay on NCI-H522 lung, in the assay with SK-OV-3 ovarian and in the assay with PC-3 prostate was over 100 µM each time. The TGI in the assay with NCI-H226 lung, in the assay with HT29 colon, with SK-MEL-5 melanoma and in the assay with SW-620 colon was over 100 µM in each case.

`CC1=NNC(=O)C1C1CC(c2c[nH]c3ccccc23)=NN=C1Cl` (stereo unspecified): the TGI with T-47D breast, with A498 renal, in the assay with 786-0 renal, in the assay on NCI-H522 lung, in the assay on SK-OV-3 ovarian and in the assay on PC-3 prostate was over 100 µM in each case. Further, the TGI in the assay on NCI-H226 lung, with HT29 colon, in the assay on SK-MEL-5 melanoma and in the assay on SW-620 colon was over 100 µM each time.

For `COC(=O)[C@H](Cc1ccccc1)NC(=O)N(CCC#N)CCN(C(=O)N[C@@H](Cc1ccccc1)C(=O)OC)c1ccccc1`, the TGI in the assay on T-47D breast was 41.6 µM; in the assay with A498 renal, 39.8 µM; with 786-0 renal it was 50.8 µM; with SK-OV-3 ovarian it was over 100 µM; in the assay on PC-3 prostate, over 100 µM; in the assay with NCI-H226 lung, 89 µM. The TGI is 46.2 µM with SK-MEL-5 melanoma and over 100 µM with SW-620 colon.

For `COc1cc([N+](=O)[O-])c(OC)c2c(Nc3ccc(S(=O)(=O)O)c4cc(S(=O)(=O)O)cc(S(=O)(=O)O)c34)cc(C)nc12`, the TGI in the assay with T-47D breast, in the assay on A498 renal, in the assay with 786-0 renal, with NCI-H522 lung, in the assay on SK-OV-3 ovarian and with PC-3 prostate was over 100 µM in each case. The TGI with NCI-H226 lung, in the assay with HT29 colon, in the assay with SK-MEL-5 melanoma and in the assay on SW-620 colon was over 100 µM each time.

Turning to `CCOC(=O)C1CCC(=O)N1C(=O)c1ccccc1Cl` (stereo unspecified), the TGI in the assay on T-47D breast, in the assay on A498 renal, in the assay with 786-0 renal, with NCI-H522 lung, in the assay on PC-3 prostate and in the assay with NCI-H226 lung was over 100 µM throughout. Moreover, the TGI in the assay with HT29 colon, with SK-MEL-5 melanoma and with SW-620 colon was over 100 µM in each case.

Take `COc1ccc(N2C(=O)C3c4[nH]c5ccccc5c4C4CCCCCCCCCC4C3C2=O)cc1` (stereo unspecified): the TGI in the assay on T-47D breast, with A498 renal, in the assay with NCI-H522 lung, in the assay on SK-OV-3 ovarian, with PC-3 prostate and in the assay with NCI-H226 lung was over 10 µM in each case. Besides, the TGI in the assay with HT29 colon, in the assay on SK-MEL-5 melanoma and in the assay on SW-620 colon was over 10 µM each time.

Take `C[C@H]1OC(=O)[C@@H]2N=NN(Cc3ccccc3)[C@H]12`: the TGI in the assay with T-47D breast, in the assay with A498 renal, with 786-0 renal, in the assay with NCI-H522 lung, in the assay on SK-OV-3 ovarian and in the assay on PC-3 prostate was over 100 µM in each case. Further, the TGI in the assay on HT29 colon, in the assay on SK-MEL-5 melanoma and in the assay on SW-620 colon was over 100 µM each time.

Consider `CC(C)C(N)C(=O)NC(CCC(=O)NCCCCC(N)C(=O)NCCCNc1ccc([N+](=O)[O-])c2[nH]c3ccccc3c(=O)c12)C(N)=O` (stereo unspecified), for which the TGI in the assay with T-47D breast, with A498 renal, with 786-0 renal, in the assay on SK-OV-3 ovarian, with PC-3 prostate and in the assay with NCI-H226 lung was over 100 µM in each case. The TGI in the assay with SK-MEL-5 melanoma and in the assay on SW-620 colon was over 100 µM throughout.

Turning to `CC(C)=CCC[C@@H](C)C1=C(O)C(N)=C(C)C(=O)C1=O`, the TGI was over 88.4 µM with T-47D breast; over 100 µM with A498 renal; over 100 µM with 786-0 renal; over 100 µM in the assay on SK-OV-3 ovarian; over 100 µM with PC-3 prostate; over 100 µM with NCI-H226 lung. Besides, the TGI in the assay on HT29 colon was over 100 µM; in the assay with SK-MEL-5 melanoma it was over 86 µM; with SW-620 colon, over 100 µM.
